Patent US10792289B2 (Horizon Orphan LLC, priority 2009, dated 2020)

Experiments:
Format in all cases: in vivo, human
[1] = system: S. aureus; assay: Phase 2 study: presumptive S. aureus density in sputum; conditions: Table 21 (EE population)
Method: (§1) The following dosage regimens (as nebulizer loaded doses) were evaluated: 120 mg QD (daily); 240 mg QD (daily); and 240 mg BID (twice daily).
(§2) Patients were assessed on Day 1, 7, 14, and 28, and then up to 28 days after completion of study drug, namely, Days 42 and 56. The end of the study was defined as the last visit of the last patient.

[2] = system: stable CF patients; assay: Phase 1b study: pulmonary function tests (FEV1)
Method: All patients had had P. aeruginosa cultured from sputum within the previous 24 months and at the screening visit. Study drug was administered twice daily for up to 14 days at three doses by aerosol using a PART eFlow device. Respirable delivered doses (RDD) were approximately 40 mg, 80 mg, and 120 mg per treatment, corresponding to loaded doses of 78 mg, 175 mg, and 260 mg, respectively. Thus, the estimated total daily RDDs were 80 mg, 160 mg, and 240 mg. Study drugs were administered at 30 mg/ml (for 40 mg dose) or 50 mg/ml (for 80 mg and 120 mg doses).
In Table 3, relative change from baseline (CBG) was calculated as ‘Result’ FEV1 minus ‘Baseline’ FEV1 divided by ‘Baseline’ FEV1.

[3] = system: stable CF patients; assay: Phase 2 study: safety, adverse events, discontinuation
Method: as §1, §2
Adverse events and drug intolerability from Day 1 through the end of study were evaluated.

[4] = system: stable CF patients; assay: Phase 2 study: time to need for anti-pseudomonal antimicrobials; conditions: for Patients Requiring Anti-Pseudomonal Antimicrobials: EE population; for Number (%) of Patients Requiring Anti-Pseudomonal Antimicrobials: MITT population
Method: as §1
Efficacy endpoints including clinical endpoints, pulmonary function tests, and additional microbiological parameters were assessed as change from Day 1 to subsequent visits where the endpoint data was collected. Time to need for intravenous/oral/inhaled anti-pseudomonal antimicrobials were assessed from Day 1 until final visit using survival analysis. The primary population for efficacy analysis was the EE population, but efficacy endpoints were also analyzed using the MITT population.
Time to administration of intravenous/oral/inhaled anti-pseudomonal antimicrobials from Day 1 until Final visit was measured for patients with at least one of the following: decreased exercise tolerance, increased cough, increased sputum/chest congestion, and decreased appetite. The proportion of patients requiring anti-pseudomonal antimicrobials (inhaled or systemic) over time was analyzed using a Cox proportional hazards model.

[5] = 80 mg RDD BID, Day 1 predose baseline
[6] = 120 mg RDD BID, Day 1 predose baseline

C[C@H]1COc2c(N3CCN(C)CC3)c(F)cc3c(=O)c(C(=O)O)cn1c23 [Levofloxacin, levofloxacin]
presumptive S. aureus density, Change from Baseline to Day 28, Mean ([1]; 240 mg QD, Day 28): −1.15 log10 CFU/g sputum | presumptive S. aureus density, Change from Baseline to Day 7, Mean ([1]; Combined 240 mg QD and BID): −0.51 log10 CFU/g sputum | presumptive S. aureus density, Day 1, Mean ([1]; Combined 240 mg QD and BID): 5.58 log10 CFU/g sputum | presumptive S. aureus density, Day 7, Mean ([1]; Combined 240 mg QD and BID): 4.99 log10 CFU/g sputum | presumptive S. aureus density, Day 14, Mean ([1]; Combined 240 mg QD and BID): 4.70 log10 CFU/g sputum | presumptive S. aureus density, Day 28, Mean ([1]; Combined 240 mg QD and BID): 4.66 log10 CFU/g sputum | presumptive S. aureus density, Change from Baseline to Day 28, Mean ([1]; Combined 240 mg QD and BID, Day 14): −0.80 log10 CFU/g sputum | presumptive S. aureus density, Change from Baseline to Day 28, Mean ([1]; Combined 240 mg QD and BID, Day 28): −0.87 log10 CFU/g sputum | presumptive S. aureus density, Change from Baseline to Day 7, Mean ([1]; Combined Levofloxacin): −0.71 log10 CFU/g sputum | presumptive S. aureus density, Day 1, Mean ([1]; Combined Levofloxacin): 5.68 log10 CFU/g sputum | presumptive S. aureus density, Day 7, Mean ([1]; Combined Levofloxacin): 4.91 log10 CFU/g sputum | presumptive S. aureus density, Day 14, Mean ([1]; Combined Levofloxacin): 4.95 log10 CFU/g sputum | presumptive S. aureus density, Day 28, Mean ([1]; Combined Levofloxacin): 4.93 log10 CFU/g sputum | presumptive S. aureus density, Change from Baseline to Day 28, Mean ([1]; Combined Levofloxacin, Day 14): −0.68 log10 CFU/g sputum | presumptive S. aureus density, Change from Baseline to Day 28, Mean ([1]; Combined Levofloxacin, Day 28): −0.72 log10 CFU/g sputum | FEV1, median ([2]; 40 mg RDD BID, Day 1 predose baseline): 2.30 L | FEV1, median ([2]; 40 mg RDD BID, Day 2 predose): 2.32 L | FEV1, median ([2]; 40 mg RDD BID, Day 7): 2.30 L | FEV1, median ([2]; 40 mg RDD BID, Day 14 predose): 2.30 L | FEV1, median ([2]; 40 mg RDD BID, Day 21/ET): 2.07 L | FEV1, mean [2, 5]: 2.06 L | FEV1, median [2, 5]: 1.95 L | FEV1, median ([2]; 80 mg RDD BID, Day 2 predose): 2.00 L | FEV1, median ([2]; 80 mg RDD BID, Day 7): 2.08 L | FEV1, median ([2]; 80 mg RDD BID, Day 14 predose): 2.10 L | FEV1, mean ([2]; 80 mg RDD BID, Day 21/ET): 2.03 L | FEV1, median ([2]; 80 mg RDD BID, Day 21/ET): 2.04 L | FEV1, mean [2, 6]: 2.56 L | FEV1, median [2, 6]: 2.23 L | FEV1, mean ([2]; 120 mg RDD BID, Day 2 predose): 2.73 L | FEV1, median ([2]; 120 mg RDD BID, Day 2 predose): 2.38 L | FEV1, mean ([2]; 120 mg RDD BID, Day 7): 3.07 L | FEV1, median ([2]; 120 mg RDD BID, Day 7): 2.40 L | FEV1, mean ([2]; 120 mg RDD BID, Day 14 predose): 3.12 L | FEV1, median ([2]; 120 mg RDD BID, Day 14 predose): 2.57 L | FEV1, mean ([2]; 120 mg RDD BID, Day 21/ET): 2.75 L | FEV1, median ([2]; 120 mg RDD BID, Day 21/ET): 2.48 L | Discontinuation from study, primary reason adverse event, patients (%) ([3]; 120 mg QD): 1 (2.6%) | Study drug discontinuation, adverse event, patients (%) ([3]; 120 mg QD): 3 (7.9%) | Study drug discontinuation, patients (%) ([3]; 120 mg QD): 3 (7.9%) | Discontinuation from study, primary reason adverse event, patients (%) ([3]; 240 mg BID): 2 (5.1%) | Study drug discontinuation, adverse event, patients (%) ([3]; 240 mg BID): 2 (5.1%) | Study drug discontinuation, patients (%) ([3]; 240 mg BID): 2 (5.1%) | Discontinuation from study, primary reason adverse event, patients (%) ([3]; 240 mg QD): 1 (2.7%) | Study drug discontinuation, adverse event, patients (%) ([3]; 240 mg QD): 1 (2.7%) | Study drug discontinuation, patients (%) ([3]; 240 mg QD): 1 (2.7%) | Significant adverse events ([3]; Day 1 through the end of study): No significant adverse events were reported | Patients Requiring Anti-Pseudomonal Antimicrobials ([4]; 120 mg QD): 20.0% | Patients Requiring Anti-Pseudomonal Antimicrobials ([4]; 240 mg BID): 20.6% | Patients Requiring Anti-Pseudomonal Antimicrobials ([4]; 240 mg QD): 25.7% | Patients Requiring Anti-Pseudomonal Antimicrobials ([4]; Combined 240 mg QD and BID): 23.2% | Number (%) of Patients Requiring Anti-Pseudomonal Antimicrobials ([4]; 120 mg QD): 18.4% | Number (%) of Patients Requiring Anti-Pseudomonal Antimicrobials ([4]; 240 mg BID): 20.5% | Number (%) of Patients Requiring Anti-Pseudomonal Antimicrobials ([4]; 240 mg QD): 27.0% | Number (%) of Patients Requiring Anti-Pseudomonal Antimicrobials ([4]; Combined 240 mg QD and BID): 23.7%
